Laboratory results taken from paper PMC11288129, “Diversely evolved xibalbin variants from remipede venom inhibit potassium channels and activate PKA-II and Erk1/2 signaling” (BMC Biology, 2024).
Positions of bridges follow the written chain, without caps; N, C: chain ends. No end group written: not given here.

Legend:
rKv1.4 = experiment: TEVC inhibition, Kv1.4; assay type: cell-based, rat; set-up: unit not given here; settings: 1 µM
Excerpt: For the expression of Kv channels rat Kv1.1 (GenBank accession number: NM_173095 [88, 89]), rKv1.2 (NM_012970 [90, 91]), human Kv1.3 (NM_002232 [92, 93]), rKv1.4 (NM_012971 [94, 95]), rKv1.6 (NM_023954 [96, 97]), hKv2.1 (NM_004975 [98, 99]), hKv3.1 (NM_004976 [100, 101]), rKv4.2 (NM_031739 [102, 103]), hKv10.1 (NM_172362 [104, 105]), hERG1 [Kv11.1, (NM_000238 [106, 107])], and Shaker IR [from Drosophila melanogaster, (NM_167595 [108, 109])], Nav channels [rNav1.2 (NM_012647 [42, 110]), rNav1.4 (NM_013178 [111, 112]), hNav1.5 (NM_198056 [113, 114]), mNav1.6 (NM_001077499 [115, 116]), BgNav [from Blattella germanica, (DQ466887 [117, 118])] and the auxiliary subunits rβ1 (NM_001271045 [119, 120]), hβ1 (NM_001037 [121, 122]), and TipE [from D. melanogaster, (NM_079196 [109, 123])], and Cav channels hCav3.1 [124, 125], hCav3.2 [126, 127], and hCav3.3 [128, 129] in Xenopus oocytes, the linearized plasmids were transcribed using the T7 or SP6 mMESSAGEmMACHINE transcription kit (Ambion, Austin, TX, USA). Mature female animals were purchased from Nasco (Fort Atkinson, USA) and were housed in the Aquatic Facility (KU Leuven) in compliance with the regulations of the European Union (EU) concerning the welfare of laboratory animals as declared in Directive 2010/63/EU. The use of X. laevis oocytes was approved by the Animal Ethics Committee of the KU Leuven with the license number P186/2019. Stage V–VI oocytes were collected from anesthetized female X. laevis frog as previously described, with the frogs anesthetized by placement in 0.1% tricaine solution (amino benzoic acid ethyl ester; Merck, USA). Oocyte microinjection was performed using a microinjector (Drummond Scientifc®, USA), with a programmed cRNA injection volume of 4—50 nL, depending on the channel subtype. The oocytes were incubated in ND96 solution (96 mM NaCl, 2 mM KCl, 1.8 mM CaCl2, 2 mM MgCl2, and 5 mM HEPES, pH 7.4), supplemented with 50 mg/l gentamicin sulfate.
Electrophysiological measurements were performed at room temperature (18–22 °C) using the two-electrode voltage clamp (TEVC) technique. Data were obtained using a GeneClamp 500 amplifier (Axon Instruments, USA), and Clampex9 software (Axon Instruments), responsible for data acquisition and storage. Glass micropipettes were produced using glass capillaries (borosilicate WPI 1B120-6) and drawn in a WPI (World Precision Instruments, USA) manual stretcher. The bath and perfusion solutions were either the previously described ND96 (Nav and Kv channels) or calcium-free ND96 supplemented with 10 mM BaCl2 (Cav channels).
Whole-cell currents of oocytes were recorded 1 to 3 days after injection. Current and voltage electrodes were filled with 3 M KCl and their resistance was adjusted from 0.7 to 2.0 MΩ. Currents were sampled at 20 kHz (Nav channels) and 10 kHz (Kv and Cav channels) and filtered using a four-pole Bessel low-pass Bessel filter, at 1 kHz for sodium, and […] for potassium and calcium, except for the hERG ion channel, in which the currents were filtered at 1 kHz. Leak subtraction was performed using a -P/4 protocol. Kv1.x currents were evoked by 500 ms depolarizations to 0 mV followed by a 500-ms pulse to − 50 mV, from a holding potential of − 90 mV. Kv2.1, Kv3.1, and Kv4.2 currents were elicited by 500 ms pulses to + 20 mV from a holding potential of − 90 mV. Current traces of Kv10.1 were elicited by 2 s depolarization to 0 mV, from a holding potential of − 90 mV. Current traces of hERG1 channel were elicited by applying a + 40 mV prepulse for 2 s followed by a step of − 120 mV for 2 s. Sodium current traces were evoked by a 100 ms depolarization to 0 mV, from a holding potential of − 90 mV. The current–voltage (IV) relationships were determined by 100-ms step depolarizations between − 90 and + 40 mV, using 5 mV increments. […]

rNav1.2 = experiment: TEVC inhibition, Nav1.2; assay type: cell-based, rat; settings: 1 µM, Xenopus oocytes, ND96, 18–22 °C, mean ± SEM, n ≥ 3
Excerpt: For the expression of Kv channels rat Kv1.1 (GenBank accession number: NM_173095 [88, 89]), rKv1.2 (NM_012970 [90, 91]), human Kv1.3 (NM_002232 [92, 93]), rKv1.4 (NM_012971 [94, 95]), rKv1.6 (NM_023954 [96, 97]), hKv2.1 (NM_004975 [98, 99]), hKv3.1 (NM_004976 [100, 101]), rKv4.2 (NM_031739 [102, 103]), hKv10.1 (NM_172362 [104, 105]), hERG1 [Kv11.1, (NM_000238 [106, 107])], and Shaker IR [from Drosophila melanogaster, (NM_167595 [108, 109])], Nav channels [rNav1.2 (NM_012647 [42, 110]), rNav1.4 (NM_013178 [111, 112]), hNav1.5 (NM_198056 [113, 114]), mNav1.6 (NM_001077499 [115, 116]), BgNav [from Blattella germanica, (DQ466887 [117, 118])] and the auxiliary subunits rβ1 (NM_001271045 [119, 120]), hβ1 (NM_001037 [121, 122]), and TipE [from D. melanogaster, (NM_079196 [109, 123])], and Cav channels hCav3.1 [124, 125], hCav3.2 [126, 127], and hCav3.3 [128, 129] in Xenopus oocytes, the linearized plasmids were transcribed using the T7 or SP6 mMESSAGEmMACHINE transcription kit (Ambion, Austin, TX, USA). […]
Whole-cell currents of oocytes were recorded 1 to 3 days after injection. […] The current–voltage (IV) relationships were determined by 100-ms step depolarizations between − 90 and + 40 mV, using 5 mV increments. […]

[1] = tested on: HMEC-1 human microvascular endothelial cells; experiment: Proliferation of HMEC-1 cells (crystal violet); assay type: cell-based; settings: 25 µg/ml
Experimental: We initially determined the cytotoxic effects of xibalbins on primary sensory neurons from adult male rats cultured in vitro [2]. […] We exposed overnight cultures of dissociated rat dorsal root ganglions (DRGs) to xibalbins for 5 and 30 min. Subsequently, all cells were fixed and immunocytochemically stained for the neuronal marker UCHL1 to identify neurons. The entire culture was digitally scanned using high content imaging (HCI) microscopy, and cell numbers, UCHL1 staining per cell, and cell size was analyzed. No loss of neurons was induced by either of the tested xibalbins, even at the highest concentration of 0.8 µg/µL (Additional File 3: Figure S2). […] We further investigated the potential toxicity of xibalbins in monocyte/macrophage-like cells (RAW264.7) and human microvascular endothelial cells (HMEC); see Additional File 5: Figure S4 The viability of RAW264.7 cells was detected using a formazan-based assay, while the proliferation of HMECs was assessed by measuring the number of crystal violet-stained cells.
Supplementary file 12915_2024_1955_MOESM5_ESM.jpg: Additional file 5: Figure S4. Effects of xibalbins on cytotoxicity in RAW264.7 macrophages and adhesion of leukocytes onto the vascular endothelium. […] Cells were incubated with WST-8 and the formed formazan was detected by absorbance measurements. […] The amount of DNA-bound crystal violet was detected by absorbance measurements. […]

Row | Sequence | Inhibition data, Kv1.4 (rKv1.4; replicate 1) | Inhibition data, Kv1.4 (rKv1.4; replicate 2) | Inhibition data, Kv1.4 (rKv1.4; replicate 3) | Inhibition data, Kv1.4 (rKv1.4; replicate 4) | inhibition of Nav1.2 (rNav1.2) [%] | Prolif. HMEC-1 [1]
1 | KRSCIRRFGRCDHRPNDCCYNSSCRCNLWGSNCRCQRMGLFQKWGK (disulfide 4-19, 11-24, 18-35, 26-33) [xib13] | 0.0 | 0.0 | 0.0 | 0.0 | 15.6 ± 2.6 | 91.3
2 | RLFCIRHHKYCGHRPKRCCSGLFCRCNTFGTNCRCQSKGALGKLI (disulfide 4-19, 11-24, 18-35, 26-33) [xib1] | 0.0 | 0.0 | 0.0 | 0.0 |  | 
